Data set [1] has as its system PDE2A. Kind of data set: In vitro autoradiography on pig brain cryosections, blocking studies. The format is binding. Conditions: 10 µM blocker. The method, then: To verify these findings, blocking studies with 10 µM of TA1 (a potent PDE2 ligand)
Pig brain cryosections (16 µm; Microm HM560 Cryostat, FischerScientific GmbH, Schwerte, Germany) were thawed, dried in a stream of cold air, and preincubated for 10 min with buffer (50 mM TRIS-HCl, pH 7.4, 120 mM NaCl, 5 mM KCl, 2 mM MgCl2) at room temperature. […] The sections were then washed twice with ice-cold 50 mM TRIS-HCl (pH 7.4), dipped in ice-cold deionized water, dried in a stream of cold air, and exposed for 60 min to an image plate. The analysis was performed using an image plate scanner (HD-CR 35; Duerr NDT GmbH, Bietigheim Bissingen, Germany).

Data set [2] in a line: Lipophilicity by shake-flask method (n-octanol/PBS). The data set is classed as physicochemical. As to conditions: n-octanol/PBS pH 7.4, ambient temperature, read-out: logD7.4. As for the experimental part:
(§1) The lipophilicity was determined by the shake-flask method in the n-octanol/PBS system. […] Moreover, the big discrepancy between the experimental and the calculated logD7.4 value was already observed for our PDE2 tracer [^18F]TA5 and has been previously discussed. It is assumed that the experimentally determined higher hydrophilicity of [^18F]TA5 might be due to the solvation effect related to hydrogen bonding and ionization of the radioligand in the aqueous buffered system. Whereas with the software-based determination, this effect may be underestimated. Therefore, the calculated logD value is often higher than the experimentally determined value.
The tubes were shaken for 20 min using a mechanical shaker (HS250 basic, IKA Labortechnik GmbH & Co. KG, Staufen, Germany) followed by centrifugation (5000 rpm for 5 min) and separation of the phases. Aliquots of 1 mL of the organic and the aqueous phase were taken, and the activity was measured using an automated gamma counter (1480 WIZARD, Fa. Perkin Elmer, Waltham, MA, USA). The distribution coefficient (D) was calculated as [activity (cpm/mL) in n-octanol]/[(activity (cpm/mL) in PBS], specified as the decadic logarithm (logD).

Data set [3] deals with T1, PDE2A (Mus musculus, UniProt Q922S4).
T1 construct: from tissue; host or cells: brain of living female CD-1 mice (in vivo PET)
T1 sequence (Q922S4 1-939): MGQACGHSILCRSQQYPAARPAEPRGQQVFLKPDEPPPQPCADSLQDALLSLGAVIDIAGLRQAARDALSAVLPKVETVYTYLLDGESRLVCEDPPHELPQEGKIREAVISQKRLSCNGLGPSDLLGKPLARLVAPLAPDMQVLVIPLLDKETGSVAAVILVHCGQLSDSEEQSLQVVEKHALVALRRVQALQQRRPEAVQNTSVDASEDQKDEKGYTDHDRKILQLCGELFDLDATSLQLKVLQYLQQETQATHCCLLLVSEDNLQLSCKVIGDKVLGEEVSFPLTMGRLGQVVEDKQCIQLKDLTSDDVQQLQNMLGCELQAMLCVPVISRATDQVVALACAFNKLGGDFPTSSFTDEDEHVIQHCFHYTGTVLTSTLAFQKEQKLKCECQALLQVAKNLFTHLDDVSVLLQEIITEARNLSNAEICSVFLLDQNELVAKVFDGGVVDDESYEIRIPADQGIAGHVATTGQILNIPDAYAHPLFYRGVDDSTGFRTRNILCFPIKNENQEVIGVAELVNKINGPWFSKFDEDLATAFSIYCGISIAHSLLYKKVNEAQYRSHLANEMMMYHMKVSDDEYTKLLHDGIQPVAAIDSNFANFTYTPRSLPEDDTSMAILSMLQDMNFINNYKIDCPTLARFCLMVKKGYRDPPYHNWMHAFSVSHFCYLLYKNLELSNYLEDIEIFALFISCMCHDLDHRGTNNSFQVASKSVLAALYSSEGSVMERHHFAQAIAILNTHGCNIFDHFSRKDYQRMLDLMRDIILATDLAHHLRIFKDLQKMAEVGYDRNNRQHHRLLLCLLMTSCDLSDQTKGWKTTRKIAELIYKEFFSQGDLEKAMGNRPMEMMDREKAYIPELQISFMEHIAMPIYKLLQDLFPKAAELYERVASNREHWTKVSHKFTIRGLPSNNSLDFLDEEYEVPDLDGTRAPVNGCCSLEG
The experiment in a line: Dynamic PET-MRI studies in CD-1 mice. The data set is classed as in vivo. Conditions: female CD-1 mice, i.v., 5 min p.i.; whole brain, striatum and cerebellum. The method, then: As reflected by the time-activity curves (TACs) shown in Figure 6, the radioactivity uptake in the whole brain, striatum, and cerebellum reached standardized uptake values (SUVs) of about 0.7 at 5 min p.i., indicating blood-brain barrier penetration.
PET/MRI scans were performed using a preclinical PET/MRI system (nanoScan, Mediso Medical Imaging Systems, Budapest, Hungary). Animals were anesthetized with a mixture of air/isoflurane (2.0%, 200 mL/min) (Anesthesia Unit U-410, agntho’s, Lidingö, Sweden), and their body temperature maintained at 37 °C with a thermal bed system. […] A dynamic 60-min PET scan was started 20 sec before radioligand injection. The list-mode data were reconstructed into 33 frames (12 × 10 sec, 6 × 30 sec, 5 × 1 min, 10 × 5 min) with 3D-ordered subset expectation maximization, 4 iterations, and 6 subsets, using an energy window of 400 to 600 KeV and coincidence mode of 1–5. After the PET scan, an MRI scan was performed for anatomical orientation and attenuation correction on a 1T magnet using a T1-weighted gradient-echo sequence (TR = 15 ms, TE = 2.6 ms). The data analysis was done with PMOD (PMOD Technologies Ltd., Zurich, Switzerland, v. 3.6), and an atlas-based method was used to obtain SUV time-activity curves for the striatum, cerebellum, and the whole brain.

Data set [4] is described as follows: In vivo metabolism of the radioligand in mice. More on the design: species or system mouse. As to conditions: i.v., 30 min p.i., radio-HPLC. As for the experimental part:
Prior to the analysis with RP-HPLC, the samples were treated with a mixture of MeCN/H2O (4:1, v/v) to precipitate the proteins. The recovery of radioactivity in plasma and brain samples was 96% and 99%, respectively. […] As shown in the chromatograms (Figure 5), the two radio-metabolites ([^18F]M1 and [^18F]M2) found in the brain were also observed in the corresponding plasma sample, indicating their ability to penetrate the blood-brain barrier. […] On the basis of the in vitro metabolites M1 and M2, both elucidated by LC-MS in the mentioned study, we can conclude about the brain penetrating radio-metabolites [^18F]M1 and [^18F]M2 as products of N-oxidation or C-hydroxylation. Besides, some of the more polar radio-metabolites detected in plasma could only tentatively be assigned as formed by mono-oxygenation, di-oxygenation, reduction, and demethylation, but were not investigated further. […]
Protein precipitation of plasma and brain samples was performed in duplicate with ice-cold MeCN/H2O (8:2, v/v), which was added to the samples (sample/solvent, 1:4, v/v). […] The combined supernatants were concentrated at 70 °C under nitrogen stream until a remaining volume of 100 µL and subsequently quantified by analytical radio-HPLC with an isocratic system (42% MeCN/20 mM NH4OAcaq.; flow rate: 1.0 mL/min). […]

Data set [5] can be described thus: In vitro stability of the radioligand. The format is physicochemical. Conditions: PBS, pig plasma, n-octanol and saline formulation containing 10% ethanol; 40 °C, up to 1 h. As for the experimental part: as §1
Samples were taken at 30 and 60 min and analyzed by radio-TLC and radio-HPLC.

The test system of a further data set is hPDE10A. More on the design: method as in PMID 24189054, PMID 23651455. Conditions: cited from earlier work.
In another data set the test system is hPDE2A. Conditions: cited from earlier work.
For data set [6], the system named is PDE2A. Conditions: cited from earlier work.
The next data set concerns PDE10A. Conditions: cited from earlier work.

The values below come from publication PMC6891464, “Radiosynthesis and Biological Investigation of a Novel Fluorine-18 Labeled Benzoimidazotriazine-Based Radioligand for the Imaging of Phosphodiesterase 2A with Positron Emission Tomography” (Molecules, 2019).

As usually defined, the IC50 is the concentration needed to halve the response being measured.

Molecules are shown by their SMILES.

Consider `COc1ccc(Cl)c(-c2nc(C)c3nnc4ccc(-c5ccnc(F)c5)cc4n23)c1` [BIT1, 1-(2-chloro-5-methoxyphenyl)-8-(2-fluoropyridin-4-yl)-3-methylbenzo[e]imidazo[5,1-c][1,2,4]triazine], for which, in the data set with PDE2A [1] (1.72 nM [18F]BIT1), the “decrease of [18F]BIT1 binding in caudate nucleus (Cd)” value was ~ 50% and the “decrease of [18F]BIT1 binding in nucleus accumbens (Acb)” value is recorded as ~ 30%. Moreover, the “decrease of [18F]BIT1 binding in cerebellum (Cb)” value in the data set on PDE2A [1] (1.72 nM [18F]BIT1, non-PDE2A region) is listed as 20–30%.
In the case of `COc1ccc(Cl)c(-c2nc(C)c3nnc4ccc(-c5ccnc([18F])c5)cc4n23)c1` [[^18F]BIT1], the logD in [2] is 1.81 ± 0.05. The “standardized uptake value (SUV) in brain” value at PDE2A [3] is given as ~ 0.7. In addition, the “intact tracer, fraction of total activity in brain” value in data set [4] (brain homogenate) stood at 78%. In addition, the “intact tracer, fraction of total activity in plasma” value in [4] was 43%. The “in vitro stability (radiochemical purity after incubation)” value in [5] was ≥ 99%.
`Cc1nc(-c2cnn(C)c2-c2ccc(C(F)(F)F)cc2)c2c(N3CC([18F])C3)ncnn12` [[^18F]PF-05270430]: the IC50 with hPDE10A is > 3000 nM; in the data set on hPDE2A it was 0.5 nM.
For `COc1ccc2nnc3c(C)nc(-c4cc(OCCC[18F])ccc4F)n3c2n1` [[^18F]TA3], the concentration for half-maximal inhibition (IC50) in the data set on PDE2A [6] is 11.4 nM; with PDE10A, 318 nM.
With `COc1ccc2nnc3c(C)nc(-c4cc(OCCCC[18F])ccc4F)n3c2n1` [[^18F]TA4], the values for the IC50 with PDE2A [6] and with PDE10A were 7.3 nM and 913 nM, respectively.
For `CCCCOc1ccc(F)c(-c2nc(C)c3nnc4ccc(OCC[18F])nc4n23)c1` [[^18F]TA5], the IC50 in the data set with PDE10A was > 1000 nM.
